Assay results taken from ChEMBL document CHEMBL1201862, “PubChem BioAssay data set” (2004).
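Dose response: 5 concentrations. Exposure: 48 h. Format: 96-well plates. Endpoint: linear interpolation; highest concentration if not reached. GI50 = concentration required for 50% inhibition of growth.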 The source made the active and inactive calls. Rule as the data show it: active = GI50 up to about 1.1 µM and inactive = higher.

How the values were obtained:
Assay in all cases: DTP human tumour cell line panel, 48 h
SF-539 = tested on: SF-539
HCT-116 = tested on: HCT-116
OVCAR-8 = tested on: OVCAR-8
HCC 2998 = tested on: HCC 2998
Malme-3M = tested on: Malme-3M
SK-MEL-28 = tested on: SK-MEL-28
SR = tested on: SR
MCF7 = tested on: MCF7
NCI-H23 = tested on: NCI-H23
SNB-75 = tested on: SNB-75
MDA-MB-435 = tested on: MDA-MB-435
SW-620 = tested on: SW-620
K562 = tested on: K562
LOX IMVI = tested on: LOX IMVI
OVCAR-3 = tested on: OVCAR-3
786-0 = tested on: 786-0
T47D = tested on: T47D
SN12C = tested on: SN12C
NCI/ADR-RES = tested on: NCI/ADR-RES

Row | SMILES | GI50 (SF-539) | GI50 (HCT-116) | GI50 (OVCAR-8) | GI50 (HCC 2998) | GI50 (Malme-3M) | GI50 (SK-MEL-28) | GI50 (SR) | GI50 (MCF7) | GI50 (NCI-H23) | GI50 (SNB-75) | GI50 (MDA-MB-435) | GI50 (SW-620) | GI50 (K562) | GI50 (LOX IMVI) | GI50 (OVCAR-3) | GI50 (786-0) | GI50 (T47D) | GI50 (SN12C) | GI50 (NCI/ADR-RES)
1 | Nc1sc2c(c1C(=O)c1ccc(Cl)c(Cl)c1)CCCC2 | 71.8 µM (inactive) | 40.4 µM (inactive) | 67 µM (inactive) | 17.3 µM (inactive) | 59.4 µM (inactive) | > 100 µM (inactive) | 27.8 µM (inactive) | 18.7 µM (inactive) | 45.3 µM (inactive) | 12.1 µM (inactive) | 30.8 µM (inactive) | 35.7 µM (inactive) | 25.5 µM (inactive) | 40.3 µM (inactive) | 60.4 µM (inactive) | 68.7 µM (inactive) | 36.2 µM (inactive) | > 100 µM (inactive) | 
2 | O=c1c2ccccc2nc(-c2ccc(Cl)cc2)n1O | 23.8 µM (inactive) | 29.7 µM (inactive) | 16.5 µM (inactive) |  |  |  |  | 20 µM (inactive) | 48.4 µM (inactive) | 38.2 µM (inactive) | 26.5 µM (inactive) | 33.7 µM (inactive) | 22.9 µM (inactive) | 1.11 µM (active) | 40.2 µM (inactive) | 22.2 µM (inactive) | > 100 µM (inactive) | 35.7 µM (inactive) | 19.6 µM (inactive)
3 | COc1ccc(O[C@H](CO)C[C@@H]2COC(C)(C)O2)cc1 | > 100 µM (inactive) | > 100 µM (inactive) | > 100 µM (inactive) | > 100 µM (inactive) | > 100 µM (inactive) | > 100 µM (inactive) | > 100 µM (inactive) | > 100 µM (inactive) | > 100 µM (inactive) | > 100 µM (inactive) | > 100 µM (inactive) | > 100 µM (inactive) | > 100 µM (inactive) | > 100 µM (inactive) | > 100 µM (inactive) | > 100 µM (inactive) |  | > 100 µM (inactive) | > 100 µM (inactive)
4 | NC(=O)C(=Cn1c(=S)[nH]c2ccc([N+](=O)[O-])cc21)C(N)=O | > 100 µM (inactive) | > 100 µM (inactive) | > 100 µM (inactive) | > 100 µM (inactive) |  | > 100 µM (inactive) |  |  | > 100 µM (inactive) | 97.9 µM (inactive) | > 100 µM (inactive) | > 100 µM (inactive) |  | > 100 µM (inactive) | > 100 µM (inactive) | > 100 µM (inactive) | > 100 µM (inactive) | > 100 µM (inactive) | > 100 µM (inactive)
5 | C/C=C\C(CC(=O)OC)CC(=O)N(CCC1CN(S(=O)(=O)C(F)(F)F)c2ccccc21)Cc1ccc(OC)cc1OC (stereo unspecified) | > 100 µM (inactive) | 76.2 µM (inactive) |  | > 100 µM (inactive) | > 100 µM (inactive) | > 100 µM (inactive) |  | > 100 µM (inactive) | > 100 µM (inactive) | > 100 µM (inactive) | 35.7 µM (inactive) | > 100 µM (inactive) | 96.6 µM (inactive) | > 100 µM (inactive) | > 100 µM (inactive) | > 100 µM (inactive) | > 100 µM (inactive) | > 100 µM (inactive) | > 100 µM (inactive)
6 | CCOC(=O)[C@@H]1C2C(=C[C@H]3[C@H]1C(=O)N1CCCC[C@H]31)CCCN2C(=O)OCc1ccccc1 (stereo partly specified) | 43.6 µM (inactive) | 35.6 µM (inactive) | 35.5 µM (inactive) | 15.1 µM (inactive) | 28.5 µM (inactive) | 59.7 µM (inactive) |  | 29.5 µM (inactive) | 29.3 µM (inactive) | 75.7 µM (inactive) | 35 µM (inactive) | 52.2 µM (inactive) | 30.8 µM (inactive) | 33.3 µM (inactive) | 30.1 µM (inactive) | 54.5 µM (inactive) | 29.3 µM (inactive) | 47.5 µM (inactive) | 26.2 µM (inactive)
7 | COc1ccc(C[N+](C)(C)N)cc1OC | > 10 µM (inactive) | > 10 µM (inactive) | > 10 µM (inactive) | > 10 µM (inactive) | > 10 µM (inactive) | > 10 µM (inactive) | > 10 µM (inactive) | > 10 µM (inactive) | > 10 µM (inactive) | > 10 µM (inactive) | > 10 µM (inactive) | > 10 µM (inactive) | 4.03 µM (inactive) | > 10 µM (inactive) | > 10 µM (inactive) | > 10 µM (inactive) |  | > 10 µM (inactive) | > 10 µM (inactive)
8 | N/C(COc1ccc(Cl)cc1)=N\NC(=O)c1ccncc1 | > 100 µM (inactive) | > 100 µM (inactive) | > 100 µM (inactive) | > 100 µM (inactive) | > 100 µM (inactive) | > 100 µM (inactive) |  | > 100 µM (inactive) | > 100 µM (inactive) | 30.3 µM (inactive) | > 100 µM (inactive) | > 100 µM (inactive) | > 100 µM (inactive) | 38.4 µM (inactive) | > 100 µM (inactive) | 54.3 µM (inactive) | 62.4 µM (inactive) | > 100 µM (inactive) | 49.9 µM (inactive)
9 | OCC(O)C(Cl)CCl (stereo unspecified) | > 100 µM (inactive) | > 100 µM (inactive) | > 100 µM (inactive) | > 100 µM (inactive) | 31.5 µM (inactive) | > 100 µM (inactive) | > 100 µM (inactive) | > 100 µM (inactive) | > 100 µM (inactive) | > 100 µM (inactive) |  | > 100 µM (inactive) | > 100 µM (inactive) |  | > 100 µM (inactive) | > 100 µM (inactive) | > 100 µM (inactive) | > 100 µM (inactive) | > 100 µM (inactive)
10 | Nc1nc(O)nc2sc3c(c12)CCCC3 | 42.8 µM (inactive) | 57 µM (inactive) | > 100 µM (inactive) | 82 µM (inactive) | 37.8 µM (inactive) | 25.2 µM (inactive) | 51.5 µM (inactive) | 44.5 µM (inactive) | > 100 µM (inactive) | 19.7 µM (inactive) |  | > 100 µM (inactive) | 61.4 µM (inactive) |  |  | > 100 µM (inactive) | 64.9 µM (inactive) | 73.3 µM (inactive) | > 100 µM (inactive)
11 | C=CCc1c(O)c2ccccc2[nH]c1=O | > 100 µM (inactive) | > 100 µM (inactive) | > 100 µM (inactive) | > 100 µM (inactive) | > 100 µM (inactive) | > 100 µM (inactive) | > 100 µM (inactive) | > 100 µM (inactive) | > 100 µM (inactive) | > 100 µM (inactive) | > 100 µM (inactive) | > 100 µM (inactive) | > 100 µM (inactive) | > 100 µM (inactive) | > 100 µM (inactive) | > 100 µM (inactive) |  | > 100 µM (inactive) | > 100 µM (inactive)
12 | c1ccc(C[P+]2(c3ccccc3)c3ccccc3-c3ccccc32)cc1 | > 100 µM (inactive) | > 100 µM (inactive) | > 100 µM (inactive) | > 100 µM (inactive) |  | > 100 µM (inactive) |  | > 100 µM (inactive) | > 100 µM (inactive) | > 100 µM (inactive) | > 100 µM (inactive) | > 100 µM (inactive) | > 100 µM (inactive) | > 100 µM (inactive) | > 100 µM (inactive) | > 100 µM (inactive) |  | > 100 µM (inactive) | 
13 | C=C1[C@@H](OC(C)=O)/C=C/C2C3C(=O)[C@@](C)(OC(C)=O)[C@H]([C@H](OC(C)=O)[C@]4(O)[C@@H](C)C(=O)O[C@H]4[C@H]1Cl)[C@@]23C (stereo partly specified) |  | > 100 µM (inactive) | > 100 µM (inactive) | > 100 µM (inactive) | > 100 µM (inactive) | > 100 µM (inactive) |  |  | > 100 µM (inactive) | > 100 µM (inactive) | > 100 µM (inactive) | > 100 µM (inactive) | > 100 µM (inactive) | > 100 µM (inactive) | > 100 µM (inactive) | > 100 µM (inactive) | > 100 µM (inactive) | > 100 µM (inactive) | > 100 µM (inactive)
14 | CC(=N)OC1CC2CCC1(C)C2(C)C (stereo unspecified) | > 100 µM (inactive) | > 100 µM (inactive) | > 100 µM (inactive) | > 100 µM (inactive) | > 100 µM (inactive) | > 100 µM (inactive) | > 100 µM (inactive) | > 100 µM (inactive) | > 100 µM (inactive) | > 100 µM (inactive) | > 100 µM (inactive) | > 100 µM (inactive) | > 100 µM (inactive) | > 100 µM (inactive) | > 100 µM (inactive) | > 100 µM (inactive) | > 100 µM (inactive) | > 100 µM (inactive) | 
15 | CC1CC(OP(=O)(OCc2ccccc2)OCc2ccccc2)[C@@H](OCc2ccccc2)C(OCc2ccccc2)C1OCc1ccccc1 (stereo partly specified) | > 100 µM (inactive) | 17.9 µM (inactive) | > 100 µM (inactive) | > 100 µM (inactive) | 57.5 µM (inactive) | > 100 µM (inactive) | > 100 µM (inactive) | 40.2 µM (inactive) | 25.3 µM (inactive) | 39.5 µM (inactive) |  | > 100 µM (inactive) | 76.9 µM (inactive) | > 100 µM (inactive) |  | > 100 µM (inactive) | 41.8 µM (inactive) | > 100 µM (inactive) | > 100 µM (inactive)
16 | Oc1[nH]c(Nc2ccc(F)c(Cl)c2)nc2ncnc1-2 | > 100 µM (inactive) | > 100 µM (inactive) | > 100 µM (inactive) | > 100 µM (inactive) | > 100 µM (inactive) | > 100 µM (inactive) |  | > 100 µM (inactive) | > 100 µM (inactive) | 25.9 µM (inactive) | > 100 µM (inactive) | > 100 µM (inactive) |  | > 100 µM (inactive) | > 100 µM (inactive) | 82 µM (inactive) | > 100 µM (inactive) | > 100 µM (inactive) | > 100 µM (inactive)
